According to US20040235086A1, “Detection of cellular contaminants in samples of non-living material” (priority 2001, published 2004):

Assays:
Hepatocyte cells = assay: Microcalorimetric detection of heat production on uncoupling of oxidative phosphorylation in hepatocytes; assay type: cell-based
Protocol: Hepatocyte cells were grown on 37 degrees Celsius with 5% CO2, Rinsed with Versene, then loosened with EDTA-trypsine and washed with PBS. Concentration was 1,88. 10e7 cells/ml or about 28 000 cells in a well.
The uncoupler CCCF was dissolved in DMSO to a stock concentration of 100 mM, the diluted to 10 mM again in DMSO, and a final working concentration of 400 μM was diluted in H2O.
A sample of hepatocytes was introduced in the adjoining recipients (hereinafter referred to as top and bottom well) of a microcalorimeter. The thermopile, which is located between the two recipients allows the measurement of a minute temperature difference between the samples in each recipient by measuring a voltage difference. Sensitivity was determined to be 15 mV/K (10.7 V/W). The following procedure was used:
adding of 1.5 μl of hepatocyte solution was added to the top and bottom well of the microcalorimeter
0.5 μl of a 100 μM solution of uncoupler was added to the bottom well, while the same volume of the buffer solution was added to the top well
At its maximum (reached after 10 min), the voltage difference between the two wells was recorded. From this value, the temperature difference and the heat production difference could be determined.

[1] = tested on: Escherichia coli bacteria
Protocol: The presence of living cells, including bacterial cells, in a sample can be detected by addition of hydrogen peroxide which will be degraded by catalase activity present in the cells, which causes heat production.
Escherichia coli bacteria were grown on 37° Celsius in Liquid Broth. Samples of bacteria are taken when growth is in the log fase and is estimated to be around 4.10e8 bacteria/ml, which corresponds to around 600 000 bacteria per well.
A 30% (w/w) hydrogen peroxide solution from Sigma was used directly.
Measurements were performed using a microcalorimeter. The top well was provided with 1.5 μl of the bacterial solution in LB, while the bottom well contained 1.5 μl LB only.
When a steady baseline was obtained (10 min) 0.5 μl of the hydrogen peroxide solution was added to each of the wells.

| SMILES | maximum voltage difference between the two wells (Hepatocyte cells; 0.5 μl of 100 μM uncoupler solution added to 1.5 μl hepatocyte solution (about 28 000 cells/well), maximum reached after 10 min, vs buffer well) [μV] | heat production difference per cell (Hepatocyte cells; hepatocytes, based on number of cells added to each well) [nW] | temperature difference (voltage difference divided by sensitivity of the microcalorimeter) (Hepatocyte cells; hepatocytes, uncoupler well vs buffer well, sensitivity 15 mV/K) [mK] | maximum temperature difference ([1]; 0.5 μl of 30% (w/w) hydrogen peroxide added to 1.5 μl E. coli in LB (around 600 000 bacteria per well) vs LB only) [mK] | total enthalpy change ([1]; calculated from Tmax=ΔH/2C, heat capacity 10 mJ/K after addition of hydrogen peroxide) [mJ] |
| --- | --- | --- | --- | --- | --- |
| N#CC(C#N)=NNc1cccc(Cl)c1 [CCCF, carbonylcyanide-3-chlorophenylhydrazone] | 800 | 3 | 50 |  |  |
| OO [hydrogen peroxide] |  |  |  | 400 | 80 |
